Assay results published in EP3290412A1, “HIV-1 NUCLEOCAPSID INHIBITORS” (Università degli Studi di Siena, priority 2016, dated 2018).
Read-outs that look alike come from different tables or passages of the source.

Assays:
Assay type in all cases: cell-based
[1] = test system: Peripheral blood mononuclear cells (PBMC); conditions: human, 7 days
Experimental: Peripheral blood mononuclear cells (PBMC) obtained from healthy donors by separation over Ficoll-Hypaque (GEHealthear-Cat.# GEH17-1440-02) were suspended at 2x10^6 cells/mL in RPMI 1640 (Biowest-Cat.#L0501-500) supplemented with 10% of heat-inactivated sterile fetal bovine serum (Gibco-Cat.#10270-106), 2 mmol/l L-glutamine (Biowest-Cat.#X0550-100), 50 U/mL Penicillin-50 µg/mL Streptomycin (Biowest-Cat.#L0022-100), referred to as complete medium (CM). PBMC were supplemented with 5 µg/mL of phytohaemagglutinin (Sigma Aldr-Cat.#L1668) and cultured in 75 cm^2 flasks (Sarsted-Cat.#833.911.002) for 2 days at 37 °C in a humidified atmosphere with 5% CO2.
PBMC were then washed in CM, counted by trypan blue exclusion (Gibco-Cat. #15250-061), centrifuged and suspended in fresh CM supplemented with 20 IU/mL recombinant human IL-2 (Miltenyi Biotec-Cat.#130-097-748) and seeded in a 96-well-tissue culture plate (Sarsted-Ca#831.837) at the density of 5x10^5 cells/mL (or 1x10^5 cells in 200 µL final CM volume per well). Cells were left untreated (negative control) or treated with different concentrations of the compounds.
After 7 days of incubation cytotoxicity was determined using Promega's CellTiter 96(R) AQueous One Solution Cell Proliferation Assay (MTS assay) (Promega-Cat.#G3581) according to the manufacturer's instuctions. This is a colorimetric method for determining the number of viable cells in proliferation or cytotoxicity assays. The MTS tetrazolium compound is bioreduced by cells into a colored formazan product that is soluble in tissue culture medium. This conversion is presumably accomplished by NADPH or NADH produced by dehydrogenase enzymes in metabolically active cells.
Briefly, MTS solution was thawed at room temperature, or in a water bath at 37 °C and 40 µL of MTS solution was pipeted into each well of the 96-well assay plate containing the samples in 200 µL of culture medium and incubated at 37 °C, 5% CO2 for 4 hours. The optical density was read at 490 nm using a 96-well plate reader (Tecan Infinite F50) and TD50 (toxic dose 50%, dose killing 50% of the cells compared to untreated control) value was calculated by interpolation of the curve obtained by plotting dose against percent mortality and by using "Magellan data analysis software". CM alone plus MTS solution was used as a blank, and cell culture well without compound was used as a cellular control.

[2] = test system: HIV-1 reference strain NL4-3; experiment: BiCycle assay (MT-2 then TZM-bl cells)
Experimental: BiCycle Assay is cell based assay allowing the evaluation of the antiviral activity of HIV-1 inhibitors on the whole replication cycle of HIV-1. The assay consists in a first round of infection of the T-cell line MT-2 followed by infection of TZM-bl cells. MT-2 cells were seeded at a concentration of 50,000 cells/well in a 96-well plate and infected with the HIV-1 reference strain NL4-3 in presence of five-fold dilutions of the investigational compounds. After 72 hours, 50 µl of supernatant from each well, containing the virus produced in the first round of infection, were used to infect TZM-bl cells seeded in a 96-plate well at a concentration of 30,000 cells/well. Two days later, cells were lysed adding 40 µl of Glo Lysis Buffer (Promega) to each well for 5 minutes, then 40 µl of Brighy-Glo Luciferase Reagent (Promega) were added to each well for relative luminescence units (RLU) counting using Glo-Max Multi Detection System (Promega). RLU values from each well were elaborated using the GraphPad v5.0 software to calculate the IC50 of each compound.

HeLa cells = experiment: HeLa Proliferation assay (CellTiter Glo); conditions: 72 hours
Experimental: HeLa cells (ATCC® CCL2™) in DMEM (Dulbecco Modified Eagle's Medium) without phenol red, Thermo, 11880, USA + 10% FBS + 1X PenStrep + 1X Gln or HUVEC cells (ATCC® CRL1730™) in EBM-2 (Endothelial Growth Basal Medium, Lonza, CC3156) + EGM-2 SingleQuotsTMSupplements and Growth Factors (Lonza, CC4176) + 1X Penicyllin-Streptomycin (PenStrep, ThermoFisher) + 1X Glutamine, are plated in a 384 well plate (Thermo, 4334-11, USA) to a density of 2000 cells per well and let recover for four hours at 37 °C, 5% CO2 in a humidified atmosphere. After the recovery, compounds are transferred to assay plates as per compound preparation method. Assay plates are then incubated at 37 °C, 5% CO2 in a humidified atmosphere for 72 hours. Cell viability is measured by the CellTiter Glo (Promega, G8080, USA) as per manufacturer instruction.

[3] = Human immunodeficiency virus 1, NL43, TZM-bl, read-out: BiCycle IC50 nM
[4] = Human immunodeficiency virus 1, NL43, MT-2 cells 72 hours then TZM-bl cells two days, NL4-3, read-out: BiCycle IC50

Compound	Proliferation assay PBMC TD50 [1]	IC50 [2, 3]	Proliferation assay HELA TD50 (HeLa cells)	IC50 [2, 4]
O=C(NCC1CCCCC1)c1nc(-c2ccccn2)nc(O)c1O [Compound 1, N-(cyclohexylmethyl)-5,6-dihydroxy-2-(pyridin-2-yl)pyrimidine-4-carboxamide]	2.6 µM	1210 nM	3.5857 µM	–
O=C(OCC1CCCCC1)c1nc(-c2ccccn2)nc(O)c1O [Compound 2, cyclohexylmethyl 5,6-dihydroxy-2-(pyridin-2-yl)pyrimidine-4-carboxylate]	6 µM	1780 nM	>50 µM	–
O=C(NCC1CC1)c1nc(-c2ccccn2)nc(O)c1O [Compound 3, N-(cyclopropylmethyl)-5,6-dihydroxy-2-(pyridin-2-yl)pyrimidine-4-carboxamide]	6 µM	1410 nM	>50 µM	–
O=C(NC1CCCCC1)c1nc(-c2ccccn2)nc(O)c1O [Compound 4, N-cyclohexyl-5,6-dihydroxy-2-(pyridin-2-yl)pyrimidine-4-carboxamide]	4.8 µM	461 nM	8.1353 µM	–
C[C@@H](NC(=O)c1nc(-c2ccccn2)nc(O)c1O)C1CCCCC1 [Compound 5, (R)-N-(1-cyclohexylethyl)-5,6-dihydroxy-2-(pyridin-2-yl)pyrimidine-4-carboxamide]	3 µM	702 nM	3.1844 µM	–
O=C(NCCC1CCCCC1)c1nc(-c2ccccn2)nc(O)c1O [Compound 6, N-(2-cyclohexylethyl)-5,6-dihydroxy-2-(pyridin-2-yl)pyrimidine-4-carboxamide]	10.48 µM	2260 nM	4.2362 µM	–
CN1CCCC(CNC(=O)c2nc(-c3ccccn3)nc(O)c2O)C1 (centres unmarked) [Compound 7, 5,6-dihydroxy-N-((1-methylpiperidin-3 - yl)methyl)-2-(pyridin-2-yl)pyrimidine-4-carboxamide]	>50 µM	> 50000 nM	>50 µM	–
O=C(NCCCC1CCCCC1)c1nc(-c2ccccn2)nc(O)c1O [Compound 8, N-(3-cyclohexylpropyl)-5,6-dihydroxy-2-(pyridin-2-yl)pyrimidine-4-carboxamide]	2 µM	518 nM	4.8472 µM	–
Cc1cccnc1-c1nc(O)c(O)c(C(=O)OCC2CCCCC2)n1 [Compound 10, cyclohexylmethyl 5,6-dihydroxy-2-(3-methylpyridin-2-yl)pyrimidine-4-carboxylate]	8.1 µM	1400 nM	>50 µM	–
Cc1cccnc1-c1nc(O)c(O)c(C(=O)NCC2CCCCC2)n1 [Compound 11, N-(cyclohexylmethyl)-5,6-dihydroxy-2-(3-methylpyridin-2-yl)pyrimidine-4-carboxamide]	8.7 µM	716 nM	8.2839 µM	–
O=C(OCCC1CCCCC1)c1nc(-c2ccccn2)nc(O)c1O [Compound 12, 2-cyclohexylethyl 5,6-dihydroxy-2-(pyridin-2-yl)pyrimidine-4-carboxylate]	4 µM	2820 nM	>50 µM	–
O=C(OC1CCCCC1)c1nc(-c2ccccn2)nc(O)c1O [Compound 13, cyclohexyl 5,6-dihydroxy-2-(pyridin-2-yl)pyrimidine-4-carboxylate]	16.3 µM	–	>50 µM	–
O=C(OCCCC1CCCCC1)c1nc(-c2ccccn2)nc(O)c1O [Compound 14, 3-cyclohexylpropyl 5,6-dihydroxy-2-(pyridin-2-yl)pyrimidine-4-carboxylate]	5.6 µM	6830 nM	>50 µM	–
O=C(OCC1CCCCC1)c1nc(-c2ncccc2Cl)nc(O)c1O [Compound 15, cyclohexylmethyl 2-(3-chloropyridin-2-yl)-5,6-dihydroxypyrimidine-4-carboxylate]	25 µM	–	>50 µM	9660 nM
O=C(NCC1CCCCC1)c1nc(-c2ncccc2Cl)nc(O)c1O [Compound 16, 2-(3-chloropyridin-2-yl)-N-(cyclohexylmethyl)-5,6-dihydroxypyrimidine-4-carboxamide]	5.7 µM	–	16.609 µM	2050 nM
CC(OC(=O)c1nc(-c2ccccn2)nc(O)c1O)C1CCCCC1 (centres unmarked) [Compound 17, 1-cyclohexylethyl 5,6-dihydroxy-2-(pyridin-2-yl)pyrimidine-4-carboxylate]	5.5 µM	2030 nM	>50 µM	–
Cc1cccc(-c2nc(O)c(O)c(C(=O)N[C@H](C)C3CCCCC3)n2)n1 [Compound 18, (R)-N-(1-cyclohexylethyl)-5,6-dihydroxy-2-(6-methylpyridin-2-yl)pyrimidine-4-carboxamide]	2.4 µM	437 nM	4.6302 µM	–
Cc1ccnc(-c2nc(O)c(O)c(C(=O)N[C@H](C)C3CCCCC3)n2)c1 [Compound 19, (R)-N-(1-cyclohexylethyl)-5,6-dihydroxy-2-(4-methylpyridin-2-yl)pyrimidine-4-carboxamide]	3.075 µM	218 nM	2.7357 µM	–
C[C@@H](NC(=O)c1nc(-c2ccc(N)cn2)nc(O)c1O)C1CCCCC1 [Compound 20, (R)-2-(5-aminopyridin-2-yl)-N-(1-cyclohexylethyl)-5,6-dihydroxypyrimidine-4-carboxamide]	1.65 µM	94.5 nM	0.6864 µM	–
C[C@@H](NC(=O)c1nc(-c2ccc(CO)cn2)nc(O)c1O)C1CCCCC1 [Compound 55, (R)-N-(1-cyclohexylethyl)-5,6-dihydroxy-2-(5-(hydroxymethyl)pyridin-2-yl)pyrimidine-4-carboxamide]	–	504 nM	1.4665 µM	–
C[C@H](NC(=O)c1nc(-c2nccc3[nH]ccc23)nc(O)c1O)C1CCCCC1 [Compound 86, (S)-N-(1-cyclohexylethyl)-5,6-dihydroxy-2-(1H-pyrrolo[3,2-c]pyridin-4-yl)pyrimidine-4-carboxamide]	–	2280 nM	1.4147 µM	–
C[C@@H](NC(=O)c1nc(-c2ccc(CN3CCCC3)cn2)nc(O)c1O)C1CCCCC1 [Compound 93, (R)-N-(1-cyclohexylethyl)-5,6-dihydroxy-2-(5-(pyrrolidin-1-ylmethyl)pyridin-2-yl)pyrimidine-4-carboxamide]	1.87 µM	1360 nM	–	–
